Laboratory results: PMC6162330, “Insights into a dual function amide oxidase/macrocyclase from lankacidin biosynthesis” (Nature Communications, 2018)

Tests used:
[1] = target: LkcE wild type (amide oxidase/macrocyclase of lankacidin biosynthesis, Streptomyces rochei) (Streptomyces rochei); assay: SAXS; recombinant LkcE in solution; Rg 31.0 Å, Dmax 91 Å; compared with the homodimer's calculated mass and the LkcEWT crystal structure
[2] = target: T1, LkcE (Streptomyces rochei, UniProt G4V2H3); assay: X-ray crystallography, […] Å, co-crystal; type: binding; conditions: active site, one of the two per site, no turnover
T1 construct: recombinant from E. coli (pBG-102), His6-SUMO tag removed by HRV3C protease

[3] = target: T1, LkcE; assay: X-ray crystallography, […] Å; mass spectrometry of released cofactor; type: binding; conditions: non-covalent; co-purified; selenomethionyl holo crystal

T1 sequence (G4V2H3 entry or part of it): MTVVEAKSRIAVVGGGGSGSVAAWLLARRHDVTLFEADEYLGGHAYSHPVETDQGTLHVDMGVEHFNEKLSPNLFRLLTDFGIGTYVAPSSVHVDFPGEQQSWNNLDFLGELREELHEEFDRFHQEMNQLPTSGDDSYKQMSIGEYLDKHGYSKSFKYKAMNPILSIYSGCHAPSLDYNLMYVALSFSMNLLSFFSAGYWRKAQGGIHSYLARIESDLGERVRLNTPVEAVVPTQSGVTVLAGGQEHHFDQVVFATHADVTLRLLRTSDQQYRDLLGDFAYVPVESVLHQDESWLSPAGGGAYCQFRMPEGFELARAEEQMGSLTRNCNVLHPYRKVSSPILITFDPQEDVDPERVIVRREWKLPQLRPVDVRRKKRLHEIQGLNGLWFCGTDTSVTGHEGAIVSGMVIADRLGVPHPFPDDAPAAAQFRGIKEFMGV

With “LkcE wild type (amide oxidase/macrocyclase of lankacidin biosynthesis, Streptomyces rochei) (enzyme)” as the compound, how does the stoichiometry N [1] read?
The stoichiometry N was 2.

For C=CCNC(=O)[C@H](O)[C@@H](O)C(=O)NCC=C [compound 5, DATD], which “X-ray crystallography, 2.80 Å, co-crystal” value ([2]; position overlaps EMAA) is on record?
Its value is “clear electron density attributable to EMAA and DATD”.

For Cc1cc2nc3c(=O)[nH]c(=O)nc-3n(C[C@H](O)[C@H](O)[C@H](O)COP(=O)(O)OP(=O)(O)OC[C@H]3O[C@@H](n4cnc5c(N)ncnc54)[C@H](O)[C@@H]3O)c2cc1C [FAD], which “X-ray crystallography, 3.15 Å; mass spectrometry of released cofactor” value [3] is on record?
The value was “the FAD cofactor is non-covalently bound”.

With CCOC(=O)[C@H](C)C(C)=O [compound 4, EMAA] as the compound, how does the “X-ray crystallography, 2.80 Å, co-crystal” value ([2]; position overlaps DATD) read?
The value was “clear electron density attributable to EMAA and DATD”.
